Here are results for two compounds from patent publication US20170049781A1, “HSP90 INHIBITOR COMBINATIONS” (Novartis AG, priority 2008, published 2017).

Assay type in all cases: cell-based, human
The subject of assay [1] is phosphorylated AKT (P-AKT(S473) and P-AKT(T308)). Briefly: Western blot of AKT phosphorylation in BT474 breast tumor cells. As to the method:
(§1) Two cancer derived cell lines are used (BT474 and MDA-MB-231). These are human breast carcinoma cell lines. The cell lines are commercially available from American Type Culture Collection (ATCC). BT474 cells are maintained in Hybri-Care medium (ATCC) supplemented with 10% v/v fetal calf serum and 2 mM L-glutamine. MDB-MB-231 cells are grown in RPMI 1640 medium (Animed, Allschwil, Switzerland) supplemented with 10% v/v fetal calf serum and 2 mM L-glutamine. The media are supplemented with 100 microgramm/ml penicillin/streptomycin and cells are maintained at 37° C. in 5% CO2.
(§2) After division and medium change, cells from stock culture are seeded at a density of 3.3×10^4 cells/cm^2 (BT474) and 1.2×10^4 cells/cm^2 (MDB-MB-231) on cell plates and incubated for 48 hours at 37° C. and 5% CO2 prior to the treatment with DMSO vehicle, 20 nM everolimus (RAD001) and/or various concentrations of AUY922 (compound 1) for 24 hours. To prepare cell lysates culture plates are washed once with ice-cold phosphor buffered saline (PBS) containing 1 mM phenylmethylsulfonyl fluoride (PMSF) and once with ice-cold extraction buffer (50 mM Hepes pH 7.4, 150 mM NaCl, 25 mM beta-glycerophosphate, 25 mM NaF, 5 mM EGTA, 1 mM EDTA, 15 mM PPi, 2 mM sodium orthovanadate, 10 mM sodium molybdate, leupeptin (10 microgramm/ml), aprotinin (10 microgramm/ml), 1 mM DTT and 1 mM PMSF. Cells are extracted in the same buffer, containing 1% NP-40. The extracts are homogenized, cleared by centrifugation, aliquoted and frozen at −80° C. Protein concentration is determined with the BCA Protein Assay (Pierce, Rockford, Ill., USA).
(§3) Twenty micrograms of cell extracts are resolved electrophoretically on 12% denaturing sodium dodecyl sulfate polyacrylamide gels (SDS-PAGE) and transferred to polyvinylidene difluoride filters by wet-blotting (1 hour at 250 mA) and probed overnight at 4° C. with the following primary antibodies:
(§4) anti-phospho-Akt (Ser473) (clone 14-05; 1:2000) obtained from DAKO (Glostrup, Denmark) and diluted in PBS, 0.5% v/v Tween. […]

In assay [2] the test system is phosphorylated AKT (P-AKT(S473), T308). Briefly: Western blot of AKT phosphorylation in MDA-MB-231 breast tumor cells. Conditions: MDA-MB-231 cells. The method, then: as §1, §2, §3, §4
The subject of assay [3] is AKT. Briefly: Western blot of AKT levels in MDA-MB-231 breast tumor cells. Conditions: MDA-MB-231 cells, 100 nM Compound I. As to the method: as §1
After division and medium change, cells from stock culture are seeded at a density of 3.3×10^4 cells/cm^2 (BT474) and 1.2×10^4 cells/cm^2 (MDB-MB-231) on cell plates and incubated for 48 hours at 37° C. and 5% CO2 prior to the treatment with DMSO vehicle, 20 nM everolimus (RAD001) and/or various concentrations of AUY922 (compound 1) for 24 hours. […]
A general note: In western blotting, separated proteins are transferred to a membrane and probed.

Take `CO[C@H]1C[C@@H]2CC[C@@H](C)[C@@](O)(O2)C(=O)C(=O)N2CCCC[C@H]2C(=O)O[C@H]([C@H](C)C[C@@H]2CC[C@@H](OCCO)[C@H](OC)C2)CC(=O)[C@H](C)/C=C(\C)[C@@H](O)[C@@H](OC)C(=O)[C@H](C)C[C@H](C)/C=C/C=C/C=C/1C` [RAD001, 40-O-(2-hydroxyethyl)-rapamycin]: the “AKT phosphorylation (P-AKT(S473) and P-AKT(T308)) on addition of RAD001 in the presence of compound I” value in assay [1] (BT474 cells, 20 nM RAD001 in the presence of 50-100 nM compound I (combination)) is reported as “did not cause increase in AKT phosphorylation”. Besides, in assay [1] (BT-474 cells, 20 nM RAD001, 24 hours), the “levels of phosphorylated AKT (P-AKT(S473) and P-AKT(T308)) compared to an untreated control” value was “increased levels of phosphorylated AKT”. The “levels of phosphorylated AKT (P-AKT(S473)) compared to an untreated control” value in assay [2] (20 nM RAD001, 24 hours) is “increased levels of phosphorylated AKT”. Besides, the “phosphorylation of AKT at amino acid residue T308 on addition of RAD001 in the presence of compound I” value in assay [2] (20 nM RAD001 in the presence of 50-100 nM compound I (combination)) is recorded as “did not cause increased phosphorylation of AKT”.

Regarding `COc1cccc(-c2ccccc2[C@H]2Cc3nc(N)nc(C)c3C(=O)N2)n1` [compound I, (R)-2-amino-7-[2-(6-methoxy-pyridin-2-yl)-phenyl]-4-methyl-7,8-dihydro-6H-pyrido[4,3-d]pyrimidin-5-one], the “AKT phosphorylation (P-AKT(S473) and P-AKT(T308))” value in assay [1] (BT474 cells, 50-100 nM compound I, 24 hours) is on record as “diminished”. For the same compound, the “AKT phosphorylation (P-AKT(S473))” value in assay [2] (50-100 nM compound I, 24 hours) was “diminished”. Besides, the AKT levels result in assay [3] is on record as “slightly decreased”.
